One assay relates to INS-1E cells. Nature of the assay: Glucose stimulated insulin secretion assay (GSIS) in INS-1E cells. It is filed as cell-based, rat. The settings on record: for % inhibition of Insulin (Average Inhibition (%)) / pIC50: INS-1E cell line; for pIC50 / inhibition at 10 µM: Rattus norvegicus; for inhibition at 10 µM: INS-1E cells. The procedure: (§1) INS-1E, rat pancreatic tumor (insulinoma) cells were used in the GSIS assay. INS-1E cells were thawed and incubated in culture medium (CM) (RPMI 1640+Glucose q.s., HEPES 25 mM, Na-Pyruvat 1 mM, 2-Mercaptoethanol 50 μM, Fetal Calf Serum; heat inactivated (FCS) 10%, Penicillin/Streptomycin 100 U/ml) at 37° C.; 5% CO2 in a humidified atmosphere. 96 welled plates are coated with Matrigel by incubating the plates with 1 ml pre-diluted 1:10 with cold basal medium with 100 μl/well at 37° C. for 1 hour. Matrigel is then removed and replaced with 100 μl CM. Cells are then seeded into the wells as 70 000 cells/well. CM is refreshed with 200 μl fresh CM on the third day. CM is refreshed again with 200 μl fresh CM on the sixth day. GSIS assay is performed on the seventh day and cells in wells are washed with PKrebs®BSA and incubated with 100 μL/well for 2 h. Secretion plates are placed in an incubator at 37° C., 5% C02 and saturated humidity for 60 min. Meanwhile, lysis solution is prepared by adding 1 tablet of protease inhibitor/10 mL TETG solution and kept at 4° C. until the end of the experiment. The other incubation buffers are prepared without adding pharmacological compounds, aliquoted and then placed in a water bath at 37° C. The samples are prepared including negative (βKrebs®B0=0 mM Glucose) and positive controls (PKrebs®B20=20 mM Glucose) and each compound to be tested is diluted in DMSO as having a series of final concentration including 10.00, 4.00, 1.60, 0.64, 0.26, 0.10, 0.04, 0.02 μM.
(§2) After 2 hours of starvation, glucose stimulation and treatments are initiated. KRB Buffer from cells is removed by pipetting. The solutions are homogenized and the cells are treated with 90 µL/well. 10 μl from 10-fold compound dilution is added to the assay plate (final 100 μl/well) according to the following layout for each compound to be tested.
(§3) Incubation time is 40 minutes. Plates are placed in an incubator at 37° C., 5% CO2 and saturated humidity. After incubation, 80 μL of supernatants are collected without disrupting the cell layer and stored at 4° C. or on ice until centrifugation. Remaining medium are removed from each well and 100 μL/well of cold lysis solution is added and incubated for minimum 2 minutes at room temperature. Cell lysis is observed under microscope and waited for maximum for 5 more minutes until the lysis is complete. Cell lysates are collected and all samples including supernatants are centrifuged at 700×g, 5 min at 4° C. 30 μL of each samples are transferred into aliquots for ELISA. ELISA is performed with HTRF Assay Kit comprising an insulin high range kit supplied by Cisbio/Perkin Elmer. 5 μl of each Insulin standard and 5 μl of either supernatant or lysate are transferred on HTRF plate. 40 μl/well of Anti-insulin—XL665 and 20 μl/well of Anti-insulin—EU are added to each well and the plate is read on HTRF compatible reader (fluorescence 620 nm & 665 nm).

The subject of the next assay is EndoC-βH1 Cell Line. Nature of the assay: GSIS assay in EndoC-βH1 cell line. It is filed as cell-based. As for the experimental part: as §1, §2, §3
GSIS experiments were also performed in other cell lines, e.g., EndoC-βH1, a canonical cell line for screening new therapeutic compounds.

We go through 8 compounds from US20250360142A1, “NOVEL ATP-SENSITIVE POTASSIUM CHANNEL POTENTIATORS, THEIR PREPARATION AND USE” (RHYTHM PHARMACEUTICALS, INC., priority 2022, published 2025).

Each structure is given as a SMILES string. pIC50: −log10 of the molar value. A value given as a limit tells only on which side of the number the result lay.

Turning to `C[C@@H]1CC1NC1=NS(=O)(=O)c2cc(F)c(Cl)cc2N1` (mixture of isomers) [Compound 25, (rac)-trans-6-chloro-7-fluoro-3-((2-methylcyclopropyl)amino)-4H-benzo[e][1,2,4|thiadiazine 1,1-dioxide], the “% inhibition of Insulin (Average Inhibition (%))” value in the assay on INS-1E cells was “C (C is equal to 10-25% inhibition)”. In the assay with EndoC-βH1 Cell Line, the pIC50 – broadly, −log10 of the IC50, conventionally taken in molar units – was 5.70 to 6.00.
Turning to `O=S1(=O)N=C(NC23CC(C2)C3)Nc2ccc(F)cc21` [Compound 1, 3-(bicyclo[1.1.1]pentan-1-ylamino)-7-fluoro-4H-benzo[e][1,2,4] thiadiazine 1,1-dioxide], in the assay on INS-1E cells, the pIC50 was 6.00 to 6.30 and the inhibition (in general, how much of the control response was suppressed) at 10 µM is at least 50%. In the assay with EndoC-βH1 Cell Line, this compound had a pIC50 of over 6.30.
Consider `O=S1(=O)N=C(NC23CC(C2)C3)Nc2cc(Cl)c(F)cc21` [Compound 14, 3-(bicyclo[1.1.1]pentan-1-ylamino)-6-chloro-7-fluoro-4H-benzo[e][1,2,4] thiadiazine 1,1-dioxide], for which the pIC50 with INS-1E cells and in the assay on EndoC-βH1 Cell Line was over 6.30 each time. For the same compound, the inhibition at 10 µM with INS-1E cells was at least 50%.
As to `O=S1(=O)N=C(NC2CC23CCC3)Nc2cc(Cl)c(F)cc21` (stereo not drawn) [Compound 15, 6-chloro-7-fluoro-3-(spiro[2.3]hexan-1-ylamino)-4H-benzo[e][1,2,4]thiadiazine 1,1-dioxide], the pIC50 in the assay with INS-1E cells and in the assay on EndoC-βH1 Cell Line was over 6.30 throughout.
Take `O=S1(=O)N=C(NC23CC(F)(C2)C3)Nc2cc(Cl)c(F)cc21` [Compound 19, 6-chloro-7-fluoro-3-((3-fluorobicyclo[1.1.1]pentan-1-yl)amino)-4H-benzo[e][1,2,4]thiadiazine 1,1-dioxide]: the “% inhibition of Insulin (Average Inhibition (%))” value with INS-1E cells is on record as “C (C is equal to 10-25% inhibition)”. Also, in the assay with EndoC-βH1 Cell Line, the negative-log IC50 (pIC50) is at most 5.70.
Turning to `CC1(C)CC1NC1=NS(=O)(=O)c2cc(F)c(Cl)cc2N1` (stereo not drawn) [Compound 20, 6-chloro-3-((2,2-dimethylcyclopropyl)amino)-7-fluoro-4H-benzo[e][1,2,4] thiadiazine 1,1-dioxide], the pIC50 in the assay on EndoC-βH1 Cell Line was over 6.30.
Regarding `CC1(NC2=NS(=O)(=O)c3cc(F)c(Cl)cc3N2)CCC1` [Compound 24, 6-chloro-7-fluoro-3-((1-methylcyclobutyl)amino)-4H-benzo[e][1,2,4]thiadiazine 1,1-dioxide], in the assay with EndoC-βH1 Cell Line, the pIC50 is over 6.30.
Same read-out and setting: the figure for `O=S1(=O)N=C(NC2CC23CC3)Nc2cc(Cl)c(F)cc21` (stereo not drawn) [Compound 28, 6-chloro-7-fluoro-3-(spiro[2.2]pentan-1-ylamino)-4H-benzo[e][1,2,4]thiadiazine 1,1-dioxide] is over 6.30.
